{
  "source": "paper PMC12123601",
  "about": "“Light-Induced, Lysine-Targeting Irreversible Covalent Inhibition of the Human Oxygen Sensing Hydroxylase Factor Inhibiting HIF (FIH)” (Journal of the American Chemical Society, 2025)",
  "molecular_target": "T1, PHD2 (Homo sapiens, UniProt Q9GZT9)",
  "T1 construct": "endogenous in cells; host or cells: Hep3B (SCSP-5045)",
  "T1 sequence (Q9GZT9 whole entry)": "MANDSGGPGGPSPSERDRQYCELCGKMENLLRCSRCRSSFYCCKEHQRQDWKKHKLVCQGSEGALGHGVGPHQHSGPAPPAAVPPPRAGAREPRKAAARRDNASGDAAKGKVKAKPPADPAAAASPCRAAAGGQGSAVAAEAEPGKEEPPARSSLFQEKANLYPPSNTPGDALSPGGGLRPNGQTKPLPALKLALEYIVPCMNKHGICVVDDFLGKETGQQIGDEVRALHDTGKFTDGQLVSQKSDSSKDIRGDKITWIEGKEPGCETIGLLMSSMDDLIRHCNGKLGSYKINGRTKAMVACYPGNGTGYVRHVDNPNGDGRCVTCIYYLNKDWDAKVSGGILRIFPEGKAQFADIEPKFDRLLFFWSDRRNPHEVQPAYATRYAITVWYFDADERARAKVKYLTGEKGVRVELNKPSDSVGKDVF",
  "assay": "CETSA in Hep3B cells detecting PHD2 engagement",
  "type": "cell-based",
  "conditions": "50 μM, 12-48 h after 30 min light activation",
  "procedure": "To investigate potential cellular target engagement of NBA-ZG-2291 with FIH, we performed a time-dependent cellular thermal shift assay (CETSA) using Hep3B cells. The results imply that, after 30 min of light activation (365 nm, 16 W), NBA-ZG-2291 effectively stabilizes FIH with a ΔT m of about 9 °C after incubation for 12–48 h (Figure A), indicating sustained engagement with FIH. […] We also performed Western blotting to examine the protein levels of both HIF-1α and HIF-2α in control and NBA-ZG-2291-treated Hep3B cells.\nFigure S11. The CETSA assay detecting PHD2 engagement was carried out with Hep3B cells grown in the presence of NBA-ZG-2291 (50 µM) for 12-48 h after 30 minutes of light activation (365 nm, 16W). The intensity of the bands for grayscale analysis was referenced to the starting temperature (37 °C). α-Actinin was the sample loading control. n = 2; mean ± SD. The uncropped blot is […]\n(1 picture or pasted object on this page, not shown here)\n3.4 Intact protein mass spectrometry […]\nThe process of customizing non-standard residues (NBA-ZG-2291 modified Lys106) in the amber14sb force field involved the following steps: First, the molecular structure of NBA-ZG-2291 was obtained and its topology was generated. […] The molecular charges were then calculated using the RESP method, and the topology file was updated with these charge values. […]",
  "data": [
    {"smiles": "O=C(O)CNC(=O)c1ncc(-c2cc(-c3ccc(CO)c([N+](=O)[O-])c3)no2)cc1O", "note": "[NBA-ZG-2291]", "values": [
      {"measurement": "Effect on stability of PHD2 in cells (CETSA)", "result": "not observed to affect the stability of PHD2"}
    ]}
  ]
}
